Test [1] concerns the target T1, SARS-CoV-2 PLpro (nsp3 1564–1878) (Severe acute respiratory syndrome coronavirus 2, UniProt P0DTD1). Description: biochemical. The settings on record: low concentration screen, read-out: % of control remaining. Further details: FRET-quenched peptide (Pro3) cleavage by PLpro, 10 min pre-incubation, slope over 20 min, normalised to no-compound control.
Test [2] concerns the target T1, SARS-CoV-2 PLpro (nsp3 1564–1878). The test can be described thus: biochemical. Further details: FRET-quenched peptide (Pro3) cleavage by PLpro, 10 min pre-incubation, slope over 20 min, normalised to no-compound control. Conditions: high concentration screen, read-out: % of control remaining.

28 compounds from article PMC8286840, “Identifying SARS-CoV-2 antiviral compounds by screening for small molecule inhibitors of Nsp3 papain-like protease” (Biochemical Journal, 2021) can be followed below.

Structures are written as SMILES. Where a name gives a salt, the structure may show the parent alone. Read-outs that look alike come from different tables or passages of the source. *1 amine or outer side, *2 acyl side, *3 side chain or, on linkers, in order; H or OH if unused. Where a SMILES comes first, the peptide text is derived from it. Bridges are numbered along the chain shown (N, C = ends). X1 = O=C(CCC[*:2])[*:1]

`Cc1ccc([C@@H]2O[C@H](CO)[C@@H](O)[C@H](O)[C@H]2O)cc1Cc1ccc(-c2ccc(F)cc2)s1` [Canagliflozin]: in test [1] (Well no.=5075), the remaining activity at 1.25 µM is 94.6%. For the same compound, the remaining activity at 3.75 µM in test [2] (Well no.=5075) amounted to 95.2%.

Take `CCOc1nc2cccc(C(=O)OC(C)OC(=O)OC3CCCCC3)c2n1Cc1ccc(-c2ccccc2-c2nn[nH]n2)cc1` (stereo not shown) [Candesartan (Cilexetil)]: the remaining activity at 1.25 µM in test [1] (Well no.=7673) was determined as 95.7%. Also, the remaining activity at 3.75 µM in test [2] (Well no.=7673) worked out at 92.5%.

With `CCOc1nc2cccc(C(=O)O)c2n1Cc1ccc(-c2ccccc2-c2nnn[nH]2)cc1` [Candesartan], the results for the remaining activity at 1.25 µM in test [1] (Well no.=1846) and in test [1] (Well no.=7380) were 96.4% and 103%, respectively. Also, the figures for the remaining activity at 3.75 µM in test [2] (Well no.=1846) and in test [2] (Well no.=7380) were 96.2% and 105%, respectively.

Turning to `C=CC(=O)Nc1cc2c(Nc3ccc(F)c(Cl)c3)ncnc2cc1OCCCN1CCOCC1` [Canertinib], in test [1] (Well no.=2693), the remaining activity at 1.25 µM was 105%. Also, the remaining activity at 3.75 µM in test [2] (Well no.=2693) came out at 107%.

Turning to `C[C@]12CCC(=O)C=C1C=C[C@@H]1[C@@H]2CC[C@@]2(C)[C@H]1CC[C@@]21CCC(=O)O1` [Canrenone], in test [1] (Well no.=2181), the remaining activity at 1.25 µM was found to be 93.5%. In test [2] (Well no.=2181), the remaining activity at 3.75 µM was 98%.

Consider `C[C@]1(C(=O)O)[C@@H]2CC[C@@H](O2)[C@@]1(C)C(=O)O` [Cantharidic Acid], for which the remaining activity at 1.25 µM in test [1] (Well no.=378) was 87.8%. For the same compound, the remaining activity at 3.75 µM in test [2] (Well no.=378) was found to be 88.7%.

With `C[C@@]12C(=O)OC(=O)[C@]1(C)[C@H]1CC[C@@H]2O1` [Cantharidin], the remaining activity at 1.25 µM in test [1] (Well no.=42) came out at 94.6%; in test [1] (Well no.=3129), 107%. The results for the remaining activity at 3.75 µM in test [2] (Well no.=42) and in test [2] (Well no.=3129) were 97.9% and 108%, respectively.

Take `CC1=C(/C=C/C(C)=C/C=C/C(C)=C/C=C/C=C(C)/C=C/C=C(C)/C=C/C2=C(C)C(=O)CCC2(C)C)C(C)(C)CCC1=O` [Canthaxanthin]: the remaining activity at 1.25 µM in test [1] (Well no.=1791) was 105%; in test [1] (Well no.=4147) it was 93.8%. Besides, the remaining activity at 3.75 µM in test [2] (Well no.=1791) came out at 104%; in test [2] (Well no.=4147), 100%.

Regarding `N#Cc1c(N)nc(SCc2csc(-c3ccc(Cl)cc3)n2)c(C#N)c1-c1ccc(OCCO)cc1` [Capadenoson], the remaining activity at 1.25 µM in test [1] (Well no.=8649) worked out at 106%. In addition, the remaining activity at 3.75 µM in test [2] (Well no.=8649) is 102%.

As to `CCCCCOC(=O)Nc1nc(=O)n([C@@H]2O[C@H](C)[C@@H](O)[C@H]2O)cc1F` [Capecitabine], the remaining activity at 1.25 µM in test [1] (Well no.=2290) was 96.5%. Moreover, in test [2] (Well no.=2290), the remaining activity at 3.75 µM is 96.5%.

For `CN1N=C2CCN(C(=O)[C@@H](COCc3ccccc3)NC(=O)C(C)(C)N)C[C@@]2(Cc2ccccc2)C1=O` [Capromorelin (Tartrate)], the remaining activity at 1.25 µM in test [1] (Well no.=7235) turned out to be 96.9%. For the same compound, in test [2] (Well no.=7235), the remaining activity at 3.75 µM turned out to be 102%.

As for `Oc1cc2c(cc1O)CN(C(=S)NCCc1ccc(Cl)cc1)CCC2` [Capsazepine], the remaining activity at 1.25 µM in test [1] (Well no.=631) stood at 98.8%. Besides, the remaining activity at 3.75 µM in test [2] (Well no.=631) is 99.5%.

Consider `C[C@H](CS)C(=O)N1CCC[C@H]1C(=O)O` [Captopril], for which the remaining activity at 1.25 µM in test [1] (Well no.=318) was 93.1%; in test [1] (Well no.=1915), 97.2%; in test [1] (Well no.=4135) it was 101%; in test [1] (Well no.=7412), 105%. The remaining activity at 3.75 µM in test [2] (Well no.=318) is 97%; in test [2] (Well no.=1915), 100%; in test [2] (Well no.=4135) it was 98%; in test [2] (Well no.=7412), 106%.

With `C[N+](C)(C)CCOC(N)=O` [Carbachol], the remaining activity at 1.25 µM in test [1] (Well no.=32) came out at 95.6%. For the same compound, in test [2] (Well no.=32), the remaining activity at 3.75 µM was determined as 99%.

In the case of `CCCCC[C@H](O)/C=C/[C@@H]1[C@H]2C/C(=C/CCCC(=O)O)C[C@H]2C[C@H]1O` [Carbacyclin], the remaining activity at 1.25 µM in test [1] (Well no.=4529) was 91.4%. Besides, the remaining activity at 3.75 µM in test [2] (Well no.=4529) is 95.8%.

On to `COC(=O)N/N=C/c1c[n+]([O-])c2ccccc2[n+]1[O-]` [Carbadox], for which, in test [1] (Well no.=2211), the remaining activity at 1.25 µM is 98.3%. The remaining activity at 3.75 µM in test [2] (Well no.=2211) stood at 93.2%.

As to `NC(=O)N1c2ccccc2C=Cc2ccccc21` [Carbamazepine], the results for the remaining activity at 1.25 µM in test [1] (Well no.=270) and in test [1] (Well no.=2215) were 96.8% and 97.8%, respectively. The remaining activity at 3.75 µM in test [2] (Well no.=270) turned out to be 94.9%; in test [2] (Well no.=2215), 95.8%.

For the compound `C[N+](C)(C)CCOC(N)=O` [Carbamoylcholine (chloride)], the remaining activity at 1.25 µM in test [1] (Well no.=6757) turned out to be 99.9%. For the same compound, the remaining activity at 3.75 µM in test [2] (Well no.=6757) came to 97.3%.

On to `CC(C[N+](C)(C)C)OC(N)=O` (stereo not drawn) [Carbamyl-beta-methylcholine], for which the remaining activity at 1.25 µM in test [1] (Well no.=1736) was determined as 95.2%. For the same compound, in test [2] (Well no.=1736), the remaining activity at 3.75 µM is 94.9%.

Regarding `C[N+](C)(C)CCOC(N)=O` [Carbamylcholine], the remaining activity at 1.25 µM in test [1] (Well no.=1734) was found to be 99.8%. Moreover, the remaining activity at 3.75 µM in test [2] (Well no.=1734) came to 102%.

In the case of `CN1C2=CC(=O)/C(=N\NC(N)=O)C=C2CC1S(=O)(=O)O` (stereo not shown) [Carbazochrome sodium sulfonate], in test [1] (Well no.=5261), the remaining activity at 1.25 µM came to 96.5%. Besides, the remaining activity at 3.75 µM in test [2] (Well no.=5261) was found to be 95%.

Turning to `CC1(C)S[C@@H]2[C@H](NC(=O)C(C(=O)O)c3ccccc3)C(=O)N2[C@H]1C(=O)O` (stereo partly shown) [Carbenicillin disodium], the remaining activity at 1.25 µM in test [1] (Well no.=5030) is 96.4%. For the same compound, the remaining activity at 3.75 µM in test [2] (Well no.=5030) was found to be 96.8%.

As to `CCN(CC)CCOCCOC(=O)C1(c2ccccc2)CCCC1` [Carbetapentane citrate], the remaining activity at 1.25 µM in test [1] (Well no.=368) was found to be 90.8%. Moreover, the remaining activity at 3.75 µM in test [2] (Well no.=368) turned out to be 92.5%.

`CC[C@H](C)[C@@H]1NC(=O)[C@H](Cc2ccc(OC)cc2)NC(=O)CCCSC[C@@H](C(=O)N2CCC[C@H]2C(=O)N[C@@H](CC(C)C)C(=O)NCC(N)=O)NC(=O)[C@H](CC(N)=O)NC(=O)[C@H](CCC(N)=O)NC1=O` [Carbetocin] (Y(Me)IQNCPLG-NH2; linker N-5 via X1): the remaining activity at 1.25 µM in test [1] (Well no.=8293) came to 102%. Further, the remaining activity at 3.75 µM in test [2] (Well no.=8293) stood at 101%.

Regarding `CCOC(=O)n1ccn(C)c1=S` [Carbimazole], the remaining activity at 1.25 µM in test [1] (Well no.=5124) came to 104%. In addition, the remaining activity at 3.75 µM in test [2] (Well no.=5124) is 105%.

`NC(=O)c1nnn(Cc2cc(Cl)c(C(=O)c3ccc(Cl)cc3)c(Cl)c2)c1N` [Carboxyamidotriazole]: the remaining activity at 1.25 µM in test [1] (Well no.=5819) was 94.7%. For the same compound, the remaining activity at 3.75 µM in test [2] (Well no.=5819) came out at 89.8%.

Turning to `NCCC(=O)NCCc1c[nH]cn1` [Carcinine dihydrochloride], the remaining activity at 1.25 µM in test [1] (Well no.=237) turned out to be 95.2%. The remaining activity at 3.75 µM in test [2] (Well no.=237) was determined as 97.8%.

For the compound `COc1ccc(-c2nn3c(-c4ccccn4)nnc3s2)cc1OC` [Cardionogen-2], in test [1] (Well no.=5937), the remaining activity at 1.25 µM was found to be 102%. For the same compound, the remaining activity at 3.75 µM in test [2] (Well no.=5937) is 99.4%.
